Measurements reported in ChEMBL document CHEMBL1136032, “Remarkable influence of the aromatic substructure in 9-methoxystrobilurin derivatives on their antifungal activity” (Bioorg Med Chem Lett, 2002).
The source made the active and inactive calls. No cut-off for these calls is given here.

Assays:
Penicillium citrinum [1] = experiment: Compound was tested for the antifungal activity against Penicillium citrinum (R-3703) at a concentration of 10 ug/disk; zone of inhibition was measured after 48 h incubation.; type: functional
Fusarium solani [2] = experiment: Compound was tested for the antifungal activity against Fusarium solani (R-2800) at a concentration of 1 ug/disk; zone of inhibition was measured after 48 hr incubation; NE denotes not effective; type: functional, organism-based
Fusarium solani [3] = experiment: Compound was tested for the antifungal activity against Fusarium solani (R-2800) at a concentration of 10 ug/disk; zone of inhibition was measured after 48 hr incubation; NE denotes not effective; type: functional, organism-based
Candida albicans [4] = experiment: Compound was tested for the antifungal activity against Candida albicans (IFO1594) at a concentration of 0.1 ug/disk; zone of inhibition was measured after 48 hr incubation; +/- denotes slightly effective; type: functional, organism-based
Saccharomyces cerevisiae [5] = experiment: Compound was tested for the antifungal activity against Saccharomyces cerevisiae (IAM4861) at a concentration of 1 ug/disk; zone of inhibition was measured after 48 hr incubation; incomplete inhibition observed; type: functional
Penicillium citrinum [6] = experiment: Compound was tested for the antifungal activity against Penicillium citrinum (R-3703) at a concentration of 1 ug/disk; zone of inhibition was measured after 48 hr incubation.; type: functional
Aspergillus fumigatus [7] = experiment: Compound was tested for the antifungal activity against Aspergillus fumigatus (R-1301) at a concentration of 1 ug/disk; zone of inhibition was measured after 48 hr incubation.; type: functional
Aspergillus fumigatus [8] = experiment: Compound was tested for the antifungal activity against Aspergillus fumigatus (R-1301) at a concentration of 0.1 ug/disk; zone of inhibition was measured after 48 hr incubation.; type: functional
Fusarium solani [9] = experiment: Compound was tested for the antifungal activity against Fusarium solani (R-2800) at a concentration of 0.1 ug/disk; zone of inhibition was measured after 48 hr incubation; NE denotes not effective; type: functional, organism-based
Candida albicans [10] = experiment: Compound was tested for the antifungal activity against Candida albicans (IFO1594) at a concentration of 10 ug/disk; zone of inhibition was measured after 48 hr incubation; incomplete inhibition observed; type: functional
MRC5 [11] = experiment: Cytotoxicity against human diploid embryotic cell line (MRC-5); type: functional, cell-based
Penicillium citrinum [12] = experiment: Compound was tested for the antifungal activity against Penicillium citrinum (R-3703) at a concentration of 0.1 ug/disk; zone of inhibition was measured after 48 hr incubation.; type: functional
Saccharomyces cerevisiae [13] = experiment: Compound was tested for the antifungal activity against Saccharomyces cerevisiae (IAM4861) at a concentration of 10 ug/disk; zone of inhibition was measured after 48 hr incubation; incomplete inhibition observed; type: functional
Aspergillus fumigatus [14] = experiment: Compound was tested for the antifungal activity against Aspergillus fumigatus (R-1301) at a concentration of 10 ug/disk; zone of inhibition was measured after 48 hr incubation.; type: functional
Saccharomyces cerevisiae [15] = experiment: Compound was tested for the antifungal activity against Saccharomyces cerevisiae (IAM4861) at a concentration of 0.1 ug/disk; zone of inhibition was measured after 48 hr incubation; incomplete inhibition observed; type: functional
Candida albicans [16] = experiment: Compound was tested for the antifungal activity against Candida albicans (IFO1594) at a concentration of 1 ug/disk; zone of inhibition was measured after 48 h incubation; incomplete inhibition observed; type: functional
Penicillium citrinum [17] = experiment: Compound was tested for the antifungal activity against Penicillium citrinum (R-3703) at a concentration of 0.1 ug/disk; zone of inhibition was measured after 48 hr incubation; +/- denotes slightly effective; type: functional, organism-based
Aspergillus fumigatus [18] = experiment: Compound was tested for the antifungal activity against Aspergillus fumigatus (R-1301) at a concentration of 1 ug/disk; zone of inhibition was measured after 48 hr incubation; +/- denotes slightly effective; type: functional, organism-based
Aspergillus fumigatus [19] = experiment: Compound was tested for the antifungal activity against Aspergillus fumigatus (R-1301) at a concentration of 0.1 ug/disk; zone of inhibition was measured after 48 hr incubation; NE denotes not effective; type: functional, organism-based
Candida albicans [20] = experiment: Compound was tested for the antifungal activity against Candida albicans (IFO1594) at a concentration of 10 ug/disk; zone of inhibition was measured after 48 hr incubation.; type: functional
Saccharomyces cerevisiae [21] = experiment: Compound was tested for the antifungal activity against Saccharomyces cerevisiae (IAM4861) at a concentration of 10 ug/disk; zone of inhibition was measured after 48 hr incubation.; type: functional
Fusarium solani [22] = experiment: Compound was tested for the antifungal activity against Fusarium solani (R-2800) at a concentration of 1 ug/disk; zone of inhibition was measured after 48 hr incubation; incomplete inhibition observed; type: functional
Candida albicans [23] = experiment: Compound was tested for the antifungal activity against Candida albicans (IFO1594) at a concentration of 1 ug/disk; zone of inhibition was measured after 48 hr incubation.; type: functional
Saccharomyces cerevisiae [24] = experiment: Compound was tested for the antifungal activity against Saccharomyces cerevisiae (IAM4861) at a concentration of 0.1 ug/disk; zone of inhibition was measured after 48 hr incubation.; type: functional
Fusarium solani [25] = experiment: Compound was tested for the antifungal activity against Fusarium solani (R-2800) at a concentration of 10 ug/disk; zone of inhibition was measured after 48 hr incubation; incomplete inhibition observed; type: functional
Saccharomyces cerevisiae [26] = experiment: Compound was tested for the antifungal activity against Saccharomyces cerevisiae (IAM4861) at a concentration of 1 ug/disk; zone of inhibition was measured after 48 hr incubation.; type: functional
Penicillium citrinum [27] = experiment: Compound was tested for the antifungal activity against Penicillium citrinum (R-3703) at a concentration of 0.1 ug/disk; zone of inhibition was measured after 48 hr incubation; NE denotes not effective; type: functional, organism-based
Saccharomyces cerevisiae [28] = experiment: Compound was tested for the antifungal activity against Saccharomyces cerevisiae (IAM4861) at a concentration of 0.1 ug/disk; zone of inhibition was measured after 48 hr incubation; +/- denotes slightly effective; type: functional, organism-based
Penicillium citrinum [29] = experiment: Compound was tested for the antifungal activity against Penicillium citrinum (R-3703) at a concentration of 10 ug/disk; the diameter of each inhibition zone was measured after 48 hr incubation; NE denotes not effective; type: functional, organism-based
Aspergillus fumigatus [30] = experiment: Compound was tested for the antifungal activity against Aspergillus fumigatus (R-1301) at a concentration of 0.1 ug/disk; zone of inhibition was measured after 48 hr incubation; +/- denotes slightly effective; type: functional, organism-based
Penicillium citrinum [31] = experiment: Compound was tested for the antifungal activity against Penicillium citrinum (R-3703) at a concentration of 1 ug/disk; zone of inhibition was measured after 48 hr incubation; NE denotes not effective; type: functional, organism-based
Candida albicans [32] = experiment: Compound was tested for the antifungal activity against Candida albicans (IFO1594) at a concentration of 0.1 ug/disk; zone of inhibition was measured after 48 h incubation; NE denotes not effective; type: functional, organism-based
MRC5 [33] = experiment: Cytotoxicity against the human diploid embryotic cell line (MRC-5); type: functional, cell-based

CO\C=C(C(=O)OC)/C(C)=C(\C=C\c1ccc(OC)cc1)OC
Diameter of inhibition zone (Penicillium citrinum [1]): 29 mm
Diameter of inhibition zone (Fusarium solani [2]): inactive
Diameter of inhibition zone (Fusarium solani [3]): inactive
Diameter of inhibition zone (Candida albicans [4]): Weak activity
Diameter of inhibition zone (Saccharomyces cerevisiae [5]): 36 mm
Diameter of inhibition zone (Penicillium citrinum [6]): 23 mm
Diameter of inhibition zone (Aspergillus fumigatus [7]): 18 mm
Diameter of inhibition zone (Aspergillus fumigatus [8]): 4 mm
Diameter of inhibition zone (Fusarium solani [9]): inactive
Diameter of inhibition zone (Candida albicans [10]): 33 mm
IC50 (MRC5 [11]; Homo sapiens, MRC5): 35 µM
Diameter of inhibition zone (Penicillium citrinum [12]): 9 mm
Diameter of inhibition zone (Saccharomyces cerevisiae [13]): 42 mm
Diameter of inhibition zone (Aspergillus fumigatus [14]): 29 mm
Diameter of inhibition zone (Saccharomyces cerevisiae [15]): 28 mm
Diameter of inhibition zone (Candida albicans [16]): 27 mm

CO\C=C(C(=O)OC)/C(C)=C(\C=C\c1ccc(OC)c(OC)c1)OC
Diameter of inhibition zone (Penicillium citrinum [1]): 22 mm
Diameter of inhibition zone (Fusarium solani [2]): inactive
Diameter of inhibition zone (Fusarium solani [3]): inactive
Diameter of inhibition zone (Candida albicans [4]): Weak activity
Diameter of inhibition zone (Saccharomyces cerevisiae [5]): 38 mm
Diameter of inhibition zone (Penicillium citrinum [6]): 13 mm
Diameter of inhibition zone (Penicillium citrinum [17]): Weak activity
Diameter of inhibition zone (Aspergillus fumigatus [18]): Weak activity
Diameter of inhibition zone (Fusarium solani [9]): inactive
Diameter of inhibition zone (Candida albicans [10]): 34 mm
IC50 (MRC5 [11]; Homo sapiens, MRC5): 12 µM
Diameter of inhibition zone (Aspergillus fumigatus [19]): inactive
Diameter of inhibition zone (Saccharomyces cerevisiae [13]): 43 mm
Diameter of inhibition zone (Aspergillus fumigatus [14]): 20 mm
Diameter of inhibition zone (Saccharomyces cerevisiae [15]): 20 mm
Diameter of inhibition zone (Candida albicans [16]): 26 mm

NYSTATIN [listing 1 of 2 here]
Diameter of inhibition zone (Penicillium citrinum [1]): 12 mm
Diameter of inhibition zone (Fusarium solani [3]): inactive
Diameter of inhibition zone (Candida albicans [20]): 16 mm
Diameter of inhibition zone (Saccharomyces cerevisiae [21]): 18 mm
Diameter of inhibition zone (Aspergillus fumigatus [14]): 14 mm

NYSTATIN [listing 2 of 2 here]
IC50 (MRC5 [11]; mrc5): 34 µM

CO\C=C(C(=O)OC)/C(C)=C(\C=C\c1ccc2c(c1)OCO2)OC
Diameter of inhibition zone (Penicillium citrinum [1]): 18 mm
Diameter of inhibition zone (Fusarium solani [2]): inactive
Diameter of inhibition zone (Fusarium solani [3]): inactive
Diameter of inhibition zone (Candida albicans [4]): Weak activity
Diameter of inhibition zone (Saccharomyces cerevisiae [5]): 36 mm
Diameter of inhibition zone (Penicillium citrinum [6]): 10 mm
Diameter of inhibition zone (Penicillium citrinum [17]): Weak activity
Diameter of inhibition zone (Aspergillus fumigatus [18]): Weak activity
Diameter of inhibition zone (Fusarium solani [9]): inactive
Diameter of inhibition zone (Candida albicans [10]): 32 mm
IC50 (MRC5 [11]; Homo sapiens, MRC5): > 100 µM
Diameter of inhibition zone (Aspergillus fumigatus [19]): inactive
Diameter of inhibition zone (Saccharomyces cerevisiae [13]): 42 mm
Diameter of inhibition zone (Aspergillus fumigatus [14]): 22 mm
Diameter of inhibition zone (Saccharomyces cerevisiae [15]): 8 mm
Diameter of inhibition zone (Candida albicans [16]): 22 mm

CO\C=C(C(=O)OC)/C(C)=C(\C=C\c1ccc2ccccc2c1)OC
Diameter of inhibition zone (Penicillium citrinum [1]): 19 mm
Diameter of inhibition zone (Candida albicans [4]): Weak activity
Diameter of inhibition zone (Penicillium citrinum [6]): 14 mm
Diameter of inhibition zone (Aspergillus fumigatus [7]): 13 mm
Diameter of inhibition zone (Aspergillus fumigatus [8]): 4 mm
Diameter of inhibition zone (Penicillium citrinum [17]): Weak activity
Diameter of inhibition zone (Fusarium solani [22]): 14 mm
Diameter of inhibition zone (Fusarium solani [9]): inactive
Diameter of inhibition zone (Candida albicans [23]): 16 mm
Diameter of inhibition zone (Saccharomyces cerevisiae [24]): 12 mm
IC50 (MRC5 [11]; Homo sapiens, MRC5): > 100 µM
Diameter of inhibition zone (Candida albicans [20]): 26 mm
Diameter of inhibition zone (Saccharomyces cerevisiae [21]): 37 mm
Diameter of inhibition zone (Aspergillus fumigatus [14]): 18 mm
Diameter of inhibition zone (Fusarium solani [25]): 13 mm
Diameter of inhibition zone (Saccharomyces cerevisiae [26]): 30 mm

C=CC(C)(C)O[C@H]1COc2ccc(/C=C/C(OC)=C(C)\C(=C/OC)C(=O)OC)cc2OC1(C)C
Diameter of inhibition zone (Penicillium citrinum [27]): inactive
Diameter of inhibition zone (Saccharomyces cerevisiae [28]): Weak activity
Diameter of inhibition zone (Aspergillus fumigatus [7]): 8 mm
Diameter of inhibition zone (Penicillium citrinum [29]): inactive
Diameter of inhibition zone (Aspergillus fumigatus [30]): Weak activity
Diameter of inhibition zone (Fusarium solani [22]): 19 mm
Diameter of inhibition zone (Fusarium solani [9]): inactive
Diameter of inhibition zone (Candida albicans [23]): 17 mm
IC50 (MRC5 [11]; Homo sapiens, MRC5): 0.36 µM
Diameter of inhibition zone (Candida albicans [20]): 22 mm
Diameter of inhibition zone (Saccharomyces cerevisiae [21]): 25 mm
Diameter of inhibition zone (Penicillium citrinum [31]): inactive
Diameter of inhibition zone (Aspergillus fumigatus [14]): 10 mm
Diameter of inhibition zone (Fusarium solani [25]): 25 mm
Diameter of inhibition zone (Candida albicans [32]): inactive
Diameter of inhibition zone (Saccharomyces cerevisiae [26]): 20 mm

CO\C=C(C(=O)OC)/C(C)=C(\C=C\c1cccc(OC)c1)OC
Diameter of inhibition zone (Penicillium citrinum [1]): 25 mm
Diameter of inhibition zone (Fusarium solani [2]): inactive
Diameter of inhibition zone (Fusarium solani [3]): inactive
Diameter of inhibition zone (Candida albicans [4]): Weak activity
Diameter of inhibition zone (Saccharomyces cerevisiae [5]): 29 mm
Diameter of inhibition zone (Penicillium citrinum [6]): 19 mm
Diameter of inhibition zone (Aspergillus fumigatus [7]): 9 mm
Diameter of inhibition zone (Fusarium solani [9]): inactive
Diameter of inhibition zone (Candida albicans [10]): 32 mm
IC50 (MRC5 [11]; Homo sapiens, MRC5): 27 µM
Diameter of inhibition zone (Penicillium citrinum [12]): 8 mm
Diameter of inhibition zone (Aspergillus fumigatus [19]): inactive
Diameter of inhibition zone (Saccharomyces cerevisiae [13]): 35 mm
Diameter of inhibition zone (Aspergillus fumigatus [14]): 23 mm
Diameter of inhibition zone (Saccharomyces cerevisiae [15]): 16 mm
Diameter of inhibition zone (Candida albicans [16]): 27 mm

CO\C=C(C(=O)OC)/C(C)=C(\C=C\c1ccccc1)OC [9-METHOXYSTROBILURIN A]
Diameter of inhibition zone (Penicillium citrinum [1]): 28 mm
Diameter of inhibition zone (Fusarium solani [2]): inactive
Diameter of inhibition zone (Fusarium solani [3]): inactive
Diameter of inhibition zone (Candida albicans [4]): incomplete inhibition
Diameter of inhibition zone (Saccharomyces cerevisiae [5]): 40 mm
Diameter of inhibition zone (Penicillium citrinum [6]): 18 mm
Diameter of inhibition zone (Aspergillus fumigatus [7]): 15 mm
Diameter of inhibition zone (Aspergillus fumigatus [30]): slightly effective
IC50 (MRC5 [33]): 34 µM
Diameter of inhibition zone (Fusarium solani [9]): inactive
Diameter of inhibition zone (Candida albicans [10]): 36 mm
Diameter of inhibition zone (Penicillium citrinum [12]): 4 mm
Diameter of inhibition zone (Saccharomyces cerevisiae [13]): 49 mm
Diameter of inhibition zone (Aspergillus fumigatus [14]): 31 mm
Diameter of inhibition zone (Saccharomyces cerevisiae [15]): 17 mm
Diameter of inhibition zone (Candida albicans [16]): 28 mm
